According to patent US20250213482A1, “OXYGEN-ENHANCED ADAPTIVE FUNCTIONAL BEVERAGE FOR ANTI-AGING AND METHOD OF PREPARATION” (priority 2025, published 2025):

Experiments:
[1] = PQQ supplementation over an 8-week period; assay type: in vivo; settings: 8-week period of supplementation
Text: In another embodiment, PQQ supplementation promotes mitochondrial biogenesis and boosts oxidative metabolism, resulting in increased energy production. […] PQQ acts as a potent antioxidant, reducing oxidative stress by neutralizing harmful free radicals and lowering inflammation. By protecting neurons from oxidative damage, PQQ supplementation contributes to improved cognitive performance, including enhanced memory, attention, and mental clarity.

[2] = daily intake of NMN for 90 days, long-term safety; assay type: in vivo; settings: 500 mg daily for 90 days

SMILES	cognitive function [1]	oxidative stress [1]	impact on blood sugar, liver function, or kidney function [2]
O=C(O)c1cc(C(=O)O)c2c(n1)C(=O)C(=O)c1cc(C(=O)O)[nH]c1-2 [PQQ, pyrroloquinoline quinone]	enhances cognitive function	reduces oxidative stress	
NC(=O)c1ccc[n+]([C@@H]2O[C@H](COP(=O)([O-])O)[C@@H](O)[C@H]2O)c1 [NMN, nicotinamide mononucleotide]			no impact on blood sugar, liver function, or kidney function
